Source: patent publication US6395787B1, “Ocular hypotensive lipids” (Allergan Sales, Inc., priority 2000, dated 2002)
pEC50, pIC50: −log10 of the molar value.

Key:
[1] = system: feline iris sphincter smooth muscle; test: Isolated cat iris sphincter smooth muscle contraction; conditions: for % Maximal contractile response mean χ ± SEM: reference contraction 10^−7 M PGF2α, n = 4
Description: (§1) Smooth muscle tension of isolated tissues was measured isometrically with force displacement transducers (Grass FT-03) and recorded on Grass Polygraphs (Models 7G and 79E). The organ baths contained Krebs solution maintained at 37° C. and gassed with 95% 02/5% CO2 to give a pH of 7.4. The Krebs solution had the following composition (mM): NaCl, 118.0; KCl, 4.7; KH2PO4, 1.2; CaCl2, 1.9; MgSO4, 1.18; NaHCO3, 25.0; glucose, 11.7; indomethacin, 0.001.
Adult domestic cats were sacrificed by intravenous overdose of sodium pentobarbital (Anthony, Arcadia, Calif.). The eyes were enucleated immediately and placed on ice. The iris sphincter muscle was mounted vertically under 50 to 100 mg tension in a jacketed 10 ml organ bath. A 60 min stabilization period was allowed before commencing each experiment. Activity was determined as contractile responses. Compounds were added cumulatively to the organ bath and at least 30 min was allowed for recovery, after complete wash-out, and return to baseline tension. […] No more than two compounds were tested in each tissue.

[2] = system: isolated guinea pig vas deferens (EP3 receptor subtype); test: Inhibition of field stimulated contraction of isolated guinea pig vas deferens
Description: as §1
Activity at the prostaglandin-sensitive EP3 receptor subtype was also determined by the ability of prostanoids to inhibit the smooth muscle twitch response stimulated by an electrical current in the isolated guinea pig vas deferens. 1.5 cm portions of the guinea pig vas deferens were suspended under 1 g initial tension and allowed to equilibrate for at least 30 minutes. Tissues were then subjected to stimulation every 30 seconds by 20 volt electrical pulses. After stabilization of the twitch response, a standard dose response curve to PGE2 was performed in a cumulative fashion. Test compounds were then evaluated by performing a cumulative dose response curve. Tissues were washed-out and allowed to equilibrate for 1 hr between compounds. PGE2 was once again evaluated at the conclusion of the experiment as a standard reference. Activity was calculated as the percent inhibition of the height of the muscle twitch response.

[3] = system: isolated rat aorta (TP receptor preparation); test: Isolated rat aorta contraction; conditions: 10^−6 and 10^−5 M
Description: as §1
Adult Sprague Dawley rats weighing 180-220 grams were anesthetized by CO2 inhalation and then decapitated and exsanguinated. The thoracic aorta was removed and cleaned of any adhering tissue. The lumen was flushed to remove any blood. The aorta was dissected into three small segments of 5-8 mm length. Each segment was mounted under 2 g of tension in a jacketed 10 ml organ bath with the aid of two wire hooks placed through the lumen of the vessel. This arrangement allowed for measurement of contraction forces developed by the circular smooth muscle. The tissues were allowed to equilibrate for 1 hour before compounds were added cumulatively to the organ baths. The response to 10^−7 M U-46619 (a thromboxane mimetic) was determined at the beginning and end of each experiment as a reference. A 30-45 minute recovery period was allowed after complete wash-out of drug. Only one test compound was examined in each tissue.

[4] = system: rabbit jugular vein segment; test: Vasorelaxation of histamine precontracted rabbit jugular vein segment
Description: as §1
New Zealand albino rabbit of either sex, weighing 2-4 kg, were injected with 1000 U heparin into the marginal ear vein and then sacrificed by CO2 gas. The external jugular veins were cleared of fat and adherent connective tissue and removed. The veins were transected and each ring of 3-4 mm length was suspended between two metal hooks in a jacketed organ bath. The tissues were equilibrated for 1 hr under 0.75 g tension, which was readjusted as the tissues relaxed. Single doses of histamine, 10^−5 M then 2-3×10^−6 M, with washing after each dose, were given to contract the tissue and establish responsiveness. The TP-receptor antagonist SQ29548, (Ogletree et al. (1985) J. Pharmacol. Exp. Ther. 234 435-441) at (10^−6 M), was applied for 5 min and then histamine 2-3×10^−6 M was added to elicit the contractile response. After 30 min of pretreatment with the histamine, the relaxant response was tested by adding cumulative doses of the test compounds with 10^−8 M to 10^−7 M PGE2 at the end of each dose-response curve as a reference. A recovery period of 30-50 min was allowed after wash-out of the tissues. Relaxant activity was calculated as % of the control tone elicited by histamine.

[5] = target: recombinant feline FP receptor (Felis catus, UniProt A0ABI7XJ69); test: Radioligand binding competition vs 3H-17-phenyl PGF2α, recombinant feline FP receptor; design: species or system cat
Description: Plasma membrane preparations of HEK 293 cells stably transfected with the human or feline FP receptor were obtained as follows. Cells washed with TME buffer were scraped from the bottom of the flasks and homogenized for 30 sec using a Brinkman PT 10/35 polytron. TME buffer was added as necessary to achieve a 40 ml volume in the centrifuge tubes. […] The cell homogenate was centrifuged at 19,000 rpm for 20 min at 4-6° C. using a Beckman Ti-60 rotor. The pellet was then resuspended in TME buffer to provide a final protein concentration of 1 mg/ml, as determined by Biorad assay. […] Incubations were for 60 min at 25° C. and were terminated by the addition of 4 ml of ice-cold 50 mM TRIS-HCl followed by rapid filtration through Whatman GF/B filters and three additional 4 ml washes in a cell harvester (Brandel).

dog pupil diameter = test: Dog pupil diameter; type: in vivo; conditions: 0.1%; for Pupil diameter (mm), test eye: n = 6
Description: Dog pupil diameter was measured using an optistick (a mm ruler which included half-circle references of standard widths (mm) for reference. Gently restraining the dog by hand, pupil diameter was determined by matching a half-circle to the pupil in normal room light. In dogs with very dark pupils a specialized penlight was used, but only very briefly to avoid pupil constriction. Pupil diameter was measured at the same time as IOP and hyperemia.

recombinant feline FP receptor, sequence (A0ABI7XJ69 entry or part of it): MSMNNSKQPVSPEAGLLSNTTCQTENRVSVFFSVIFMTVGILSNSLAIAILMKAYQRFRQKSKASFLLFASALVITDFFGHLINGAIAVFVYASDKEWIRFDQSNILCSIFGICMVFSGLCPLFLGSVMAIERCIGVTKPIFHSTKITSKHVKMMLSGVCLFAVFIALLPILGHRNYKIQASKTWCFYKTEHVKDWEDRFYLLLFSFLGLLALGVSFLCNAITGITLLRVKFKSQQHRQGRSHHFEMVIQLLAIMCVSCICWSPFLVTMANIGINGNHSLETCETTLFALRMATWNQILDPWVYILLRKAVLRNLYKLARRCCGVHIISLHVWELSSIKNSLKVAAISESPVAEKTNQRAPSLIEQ

CCCCC[C@H](O)/C=C/[C@@H]1[C@@H](C/C=C\CCCC(=O)NCCO)[C@@H](O)C[C@H]1O [PGF2α 1-ethanolamide, (5Z,8α,9α,11α,13E,15S)-9,11,15-trihydroxy-N-(2-hydroxyethyL)prosta-5,13-dien-1-amide]
% Maximal contractile response mean χ ± SEM ([1]; 10^−5 M): 126.0 ± 3.6% | % Maximal contractile response mean χ ± SEM ([1]; 10^−6 M): 119.2 ± 6.0% | % Maximal contractile response mean χ ± SEM ([1]; 10^−7 M): 77 ± 5.5% | % Maximal contractile response mean χ ± SEM ([1]; 10^−8 M): 2.7 ± 1.7% | pEC50 ([1]; Felis catus, isolated feline iris sphincter, read-out: effective concentration (E.C.)50, contraction of cat iris sphincter smooth muscle): 7.24 | threshold concentration ([1]; isolated feline iris sphincter contraction): ~10 nM | inhibiting field stimulation evoked contraction [2]: modestly effective | effect on the isolated rat aorta [3]: Residual activity occurred at high doses | pEC50 ([4]; Oryctolagus cuniculus, histamine precontracted, read-out: E.C.50, vasorelaxation of the precontracted rabbit jugular vein segment): 5.70 | endothelium dependent vasorelaxation ([4]; histamine precontracted rabbit jugular vein segment): relatively little activity | affinity for the feline receptor ([5]; radioligand binding): only weak affinity | pIC50 ([5]; read-out: inhibitory concentration50 (I.C.50), radioligand binding): 6.05 | Pupil diameter (mm), test eye (dog pupil diameter; 0 HR (baseline)): 6.7 ± 0.2 mm | Pupil diameter (mm), test eye (dog pupil diameter; 2 HR): 1.0 ± 0.4 mm | Pupil diameter (mm), test eye (dog pupil diameter; 4 HR): 1.0 ± 0.3 mm | Pupil diameter (mm), test eye (dog pupil diameter; 6 HR): 1.5 ± 0.4 mm | Pupil diameter (mm), test eye (dog pupil diameter; 24 HR): 7.0 ± 0.3 mm | miosis (dog pupil diameter; topical): marked miosis
